Experimental data as given in a melting point compilation (Tetko et al.; mined from patent text by program, amines drawn as free bases though some values may be those of a salt).

| melting point [°C] | SMILES |
| --- | --- |
| 66 to 68 | COC1CC(C)(C)Cc2c1c(C)nn2-c1ccccn1 (configuration not stated) |
| 159 to 161 | O=C1Nc2ccc(-c3cccc(Cl)c3)cc2C1=O |
| 239 to 240 | NC(=O)c1c(Cl)c(-c2ccccc2)n2c1CN(S(=O)(=O)c1ccccc1F)CC2 |
| 148 to 150 | CCOC(=O)c1ccc(N2CCC(N)CC2)nc1 |
| > 270 | CC(C)c1ccc(-c2nc(=O)n(Cc3ccccc3)c3ccc(O)cc23)cc1 |
| 90 to 92 | OC1C[C@H]2CN(C3=Nc4cc(Cl)ccc4Oc4ccccc43)CCN2C1 (some centres not stated) |
| 194 to 195 | O=C(NCCO)c1nc2ccccc2[nH]1 |
| 223 to 225 | CC(=O)NC[C@H]1CN(c2ccc(C3CCN(C(=O)c4cc5ccccc5[nH]4)CC3)c(F)c2)C(=O)O1 |
| 64 to 66 | C[C@@H](S[C@H]1CC[C@H](/C=C/c2ccc(Cl)cc2)CC1)[C@](O)(Cn1cncn1)c1ccc(F)cc1F |
| 90 to 91 | CCOC(=O)c1nn(C)c(OC(F)F)c1CO |
| 251 to 255 | O=C(O)c1ccc(NC(=O)C(CC2CCCC2)c2cccc(Cl)c2)nc1 (configuration not stated) |
| 145 to 147 | CCOC(=O)Cc1c(C(=O)OCC)c(O)c(C(=O)c2ccc(Cl)cc2)n1C |
| 140 to 142 | Cc1nc(N2CCN(Cc3ccccc3)S2(=O)=O)sc1C(=O)NCc1cccnc1 |
| 168 to 170 | COc1ccccc1N1CCN(CCCn2c(=O)[nH]cc(C)c2=O)CC1 |
| 58 to 60 | CCOC(=O)C(=CNc1cccc(OCC)n1)C(=O)OCC |
| 128 to 130 | CCCCOc1ccc(NC(=O)c2cnc(C(=O)O)c(OC)c2)cc1 |
| 85.9 to 86.5 | CC(C)(C)OC(=O)NCc1cccc(C#N)n1 |
| 59 to 61 | CCOC(=O)c1nc2c(C)nn(CC)c2nc1OCCC(C)C |
| 133 | CC(c1ccc(Cl)cc1)N1CCNC1=NC#N (configuration not stated) |
| 178 to 179 | CCCc1nc2c(N)nc3ccccc3c2n1CCCCC(=O)N1CCOCC1 |
| 91 to 92 | Cc1nc2c(F)c(F)cc(F)c2s1 |
| 84 to 86 | CCN(C(=O)N1CCN(c2cc(C)cc(C)c2)CC1)c1cc2ccccc2nc1OC |
| 165 to 167 | O=C(NCc1ccc(F)cc1)c1cn(N2CCOCC2)c2ccc(CN3CCOCC3)cc2c1=O |
| 110 to 112 | CC(C)=CC(C#N)NC(=O)c1cn(C)nc1C (configuration not stated) |

| melting point [°C] | SMILES |
| --- | --- |
| 114 to 116 | C#Cc1ccc([C@H]2CC[C@H](CCCCC)CC2)nn1 |
| 69 to 70 | CCCc1cc(CCCOc2c(C)cc(-c3noc(C)n3)cc2C)on1 |
| 178 to 179 | O=C1c2cccnc2N(c2ccccc2)C(=O)C12CCCC2 |
| 131 to 133 | Fc1cc(F)c2c(c1)C[C@@H](n1ccn(CCc3ccccc3)c1=S)CC2 |
| 77 | COc1ccc(-c2nc(S(C)(=O)=O)ncc2C(=O)N2CCOCC2)cc1OC |
| 124 to 128 | COc1cc2c(c3c1OC(C)(C)C3)C(c1cccc(NC(=O)Cc3ccncc3)c1)=NC(C)(C)C2 |
| 88 to 89 | O=C1CCN(Cc2ccccc2OC(F)(F)F)CC1C(c1ccc(F)cc1)c1ccc(F)cc1 (configuration not stated) |
| 85 to 88 | Cc1c(C)c2c(c(C)c1O)CCC(C)(C)O2 |
| 191 to 193 | CN1C(=O)CC(c2ccc(-c3ccc(F)cc3)cc2)C1C(O)c1ccc(-c2ccccc2)s1 (configuration not stated) |
| 98 to 100 | CCCCN(CC1Cc2cc(Cl)cc(Cl)c2O1)C(=O)n1ccnc1 (configuration not stated) |
| 121 to 123 | CCCC[C@H](NC(=O)[C@H](CC(C)C)NC(=O)c1ccc(C(F)(F)F)cc1)C(=O)CSCc1ccco1 |
| 115 to 117 | COC(=O)c1cc(-c2ccc(S(C)(=O)=O)cc2)n(C2CCCCCC2)n1 |
| 53 to 54 | COc1ccc(C(=O)CSc2cccc(OC)c2)cc1 |
| 71 to 76 | CCCCCCCCCCCCCCCCc1cc(S)c(Sc2nnc(SCC(=O)O)s2)cc1O |
| 126 to 127 | CC(Oc1ncn(-c2cccc(C(F)(F)F)c2)n1)C(=O)N(C)C (configuration not stated) |
| 199 to 204 | CNC(=O)c1cccc(F)c1Nc1nc(Nc2ccc3c(c2)N(CCOC)C(=O)CCC3)ncc1Cl |
| 217 | O=C1C=CC(=O)N1c1ccc(S(=O)(=O)C(I)I)cc1 |
| 148 to 150 | O=[N+]([O-])c1cc(Br)cc2[nH]c(CCl)nc12 |
| 148 to 151 | O=c1[nH]c2ccc(CCBr)cc2o1 |
| 226 to 227 | NC(=O)Cn1c(-c2ccccc2)nc2cccnc21 |
| 40 | C=CCOc1ccc(C(=O)CC(=O)C(C)(C)C)cc1OC |
| 124 to 126 | COc1cc(C(=O)CBr)cc(OC)c1OC(C)=O |
| 197 to 198 | CC(=O)Nc1ccccc1C1OC(=O)NC1=O (configuration not stated) |
| 125 to 126 | CCOc1cc(C(=O)N2CCN(C(=O)C3=Cc4cc(OC)c(OC)cc4CCC3)CC2)cc(OCC)c1OCC |

| melting point [°C] | SMILES |
| --- | --- |
| 160 | CC(=O)Nc1ccc(OCc2nc3ccccc3o2)cc1C |
| 127 to 128 | CCc1cc2c(s1)SCCc1cc(=O)n(-c3ccc(Cl)cc3)nc1-2 |
| 89 to 91 | CC1(C)CC(=O)C(C(=O)Nc2cccc(Cl)c2)C(=O)C1 |
| 101 to 103 | COC(=O)C1(CCCN2CCN(c3ccccc3)CC2)Sc2ccccc2CCC1=O (configuration not stated) |
| 213 to 215 | COc1ccc(-n2ncc(C(N)=O)c2N)cc1 |
| 135 | COC(=O)N(C)CCCC(=O)OC[C@@H]1CC(c2ccc(-c3ccc(N4C[C@H](Cn5ccnn5)OC4=O)cc3F)cn2)=NO1 |
| 65 to 68 | O=C(c1cccs1)c1cc2c(c(Cl)c1Cl)OC(CO)C2 (configuration not stated) |
| 148 | O=C1CCc2cc(-c3cccs3)ccc21 |
| 144 to 146 | CC(=O)NC[C@H]1CN(c2ccc(C3CCN(C(=O)O)CC3)c(F)c2)C(=O)O1 |
| 198 to 206 | COC(=O)Nc1nc2cc(S(=O)CC3CCC3)ccc2[nH]1 (configuration not stated) |
| 152 | CC(=O)OC1CSC(Oc2cccc(-c3cc(Cl)ccn3)c2)C(OC(C)=O)C1OC(C)=O (configuration not stated) |
| 191 | O=C(O)CCC(O)c1ccc(CCNS(=O)(=O)c2ccc(Cl)cc2)cc1 (configuration not stated) |
| 175 to 180 | N#Cc1c(N2CCc3ccccc3CC2)nc(NCCCOc2ccccc2)[nH]c1=O |
| 131 to 134 | NC(Cc1ccccc1-c1ccc(C(=O)N2Cc3ccc(C(=O)NCc4cccnc4)n3Cc3ccccc32)cc1)=NO |
| 154 to 157 | CNc1nc(C)ccc1C(=O)OCC#N |
| 163 to 164 | C#Cc1cc(Oc2cnc(N)nc2N)c(C#C)cc1OC |
| 281 to 282 | COc1cc2c(cc1S(=O)(=O)c1ccc(Br)cc1)[C@@H](N1CCCC1=O)[C@H](O)C(C)(C)O2 (relative stereo) |
| 142 to 143 | Cc1oc(-c2ccccc2)nc1COc1ccc(CCc2oc(-c3ccccc3)nc2CO)cc1 |
| 85 to 86 | COC(=O)Cc1cn(C)nc1OCc1ccc(OCc2csc(-c3ccccc3)n2)nc1 |
| 270 to 272 | COC(=O)c1cn2c(n1)COc1ccc([N+](=O)[O-])cc1-2 |
| 100 to 101 | COc1c(O)c(C(C)=O)c(OC)c2c1OCC2 |
| 142 to 143 | COC(=O)c1cc([N+](=O)[O-])c(C=Cc2ccc(OC)cc2)c([N+](=O)[O-])c1 |
| 194 | Cn1cnnc1C(c1ccc(I)cc1)c1cc2c3c(c1)c(-c1cccc(Cl)c1)cc(=O)n3CC2 (configuration not stated) |
| 58 to 70 | CCOC(=O)CCc1c(C)c2c(O)cc(C(C)CCCc3ccccc3)cc2oc1=O (configuration not stated) |

| melting point [°C] | SMILES |
| --- | --- |
| 48 | Clc1ncccc1-c1ccccc1 |
| 134 to 136 | COc1cnccc1CCCOc1cccnc1Oc1cccc(Br)c1 |
| 104 to 105 | CCc1ncnc(NC(CO)CO)c1Cl |
| 120 | C=CCOc1cn(C)c2cc(OCC(F)(F)F)ccc2c1=O |
| 130 to 136 | CCC[C@@H](CC1(C(=O)Nc2nnc(CC)s2)CCCC1)C(=O)O |
| 223 to 225 | CC(C)n1c(=O)nc(-c2ccccc2)c2ccc(CO)cc21 |
| 59 to 60 | O=C(C=C1CCCCN1)c1ccccc1 |
| 258 to 261 | N#Cc1cccc(-c2nnc(-c3cccnc3)s2)c1 |
| 149 | N#Cc1cncc(OC2SCC(O)C(O)C2O)c1 (configuration not stated) |
| 96 to 98 | COC(=O)c1ccc(OC(Cc2ccccc2)C(=O)OC)cc1 (configuration not stated) |
| 54 to 56 | CSc1c(C)c(-c2cc(OS(=O)(=O)C(F)(F)F)c(Cl)cc2F)nn1C |
| 112 to 114 | Clc1cccc(Nc2nccc(Cl)n2)c1 |
| 160 to 163 | CCn1ncc(C(=O)c2cc(C)c3c(c2C)C(=O)C(C)(C)CS3(=O)=O)c1O |
| 112 to 114 | COc1ccc([N+](=O)[O-])c(NC(=O)OC(C)(C)C)c1 |
| 138 to 139 | CCOC(=O)C1=Cc2cc(C(F)(F)F)ccc2NC1C(F)(F)F (configuration not stated) |
| 175 | CCOC(=O)COc1ccc([N+](=O)[O-])cc1C1C(C(=O)OCC)=C(C)NC(C)=C1C(=O)OCC |
| 266 to 268 | Cc1cc(C2=NN=C(C(N)=O)Cc3cc4c(cc32)OCO4)ccc1[N+](=O)[O-] |
| 315 to 318 | CC1(C)C(=O)Nc2cc3[nH]c(C4CCCCC4)nc3cc21 |
| 108 to 110 | CCOc1cccc2cc(C(=O)c3ccc(Cl)cc3)oc12 |
| 75 | CCOC(=O)Cc1ccccc1Oc1ccc(C)cc1 |
| 248 to 251 | COc1c(F)c(F)cc2c(O)c(C(=O)NCc3ccc(Cl)cc3)cnc12 |
| 126 to 129 | OCC1OC(n2c(Cl)nc3cc(Br)c(Br)cc32)C(O)C1O (configuration not stated) |
| 319 to 323 | CN1CCC(=C2c3ccccc3Sc3ccc(C(=O)O)cc32)CC1 |

| SMILES | melting point [°C] |
| --- | --- |
| OCC1CNC2Cc3c[nH]c4cccc(c34)C2(O)C1 (configuration not stated) | 145 to 149 |
| CCN1CCc2c(Br)ccc([N+](=O)[O-])c2C1 | 52 to 53 |
| CNC(=C[N+](=O)[O-])NCc1ccc(Cl)nc1 | 181 to 183 |
| COc1cccc2c1C(O)c1ccccc1C21CCN(C)CC1 (configuration not stated) | 149 to 151 |
| O=C(OC1CCCCC1)c1ncn2c1[C@@H]1CCCN1C(=O)c1c(I)cccc1-2 | 181 to 182 |
| N#Cc1cc(F)c(-n2ncc(Cl)c(Cl)c2=O)cc1F | 206 |
| Fc1ccc2[nH]cc(C3=CCN(CC4COc5ccc6c(c5O4)OCCC6)CC3)c2c1 (configuration not stated) | 146 to 148 |
